Measured values published in patent US20260285850A1, “SUBSTITUTED OXAZOLIDINONES AND IMIDAZOLINONES AS HERBICIDES” (FMC CORPORATION, priority 2023, published 2026).

Experiments:
Type in all cases: in vivo
rice (Oryza sativa) = assay: Test B flooded paddy test, visual plant response rating 0-100; conditions: 250 g ai/ha, Flood, applied to paddy water, evaluated after 13 days
In short: (§1)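 Compounds applied to standing paddy water (3 cm above soil, maintained for the test duration) on 2-leaf-stage plants; visual rating vs controls at 13 days, greenhouse.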

[1] = system: barnyardgrass (Echinochloa crusgalli); assay: as above; conditions: 250 g ai/ha, Flood, applied to paddy water, evaluated after 13 days
In short: as §1

[2] = system: ducksalad (Heteranthera limosa); assay: as above; conditions: 250 g ai/ha, Flood, applied to paddy water, evaluated after 13 days
In short: as §1

[3] = system: sedge, umbrella (small-flower umbrella sedge, Cyperus difformis); assay: as above; conditions: 250 g ai/ha, Flood, applied to paddy water, evaluated after 13 days
In short: as §1

[4] = system: ryegrass, Italian (italian ryegrass, Lolium multiflorum); assay: Test A postemergence application, visual injury rating 0-100
In short: (§2)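 Greenhouse test: loam/sand pots received a surfactant-containing formulation, as a preemergence directed soil spray or a postemergence spray on young plants. Injury was judged visually at day 10 relative to untreated controls.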

kochia (Bassia scoparia) [5] = assay: as above
In short: as §2

[6] = system: palmer (palmer amaranth, palmer pigweed, Amaranthus palmeri); assay: as above
In short: as §2

[7] = system: horseweed (Erigeron canadensis); assay: as above
In short: as §2

corn (Zea mays) [8] = assay: as above
In short: as §2

[9] = system: blackgrass (Alopecurus myosuroides); assay: as above
In short: as §2

[10] = system: wheat (Triticum aestivum); assay: as above
In short: as §2

soybean (Glycine max) [11] = assay: as above
In short: as §2

[12] = system: ragweed (common ragweed, Ambrosia artemisiifolia); assay: as above
In short: as §2

[13] = system: galium (catchweed bedstraw, Galium aparine); assay: as above
In short: as §2

[14] = system: green foxtail (Setaria viridis); assay: as above
In short: as §2

[15] = system: oat, wild (wild oat, Avena fatua); assay: as above
In short: as §2

[16] = system: barnyardgrass (Echinochloa crus-galli); assay: as above
In short: as §2

[17] = system: ryegrass, Italian (italian ryegrass, Lolium multiflorum); assay: Test A preemergence soil spray, visual injury rating 0-100; conditions: 10 days
In short: as §2

kochia (Bassia scoparia) [18] = assay: as above; conditions: 10 days
In short: as §2

[19] = system: palmer (palmer amaranth, palmer pigweed, Amaranthus palmeri); assay: as above; conditions: 10 days
In short: as §2

corn (Zea mays) [20] = assay: as above; conditions: 10 days
In short: as §2

[21] = system: blackgrass (Alopecurus myosuroides); assay: as above; conditions: 10 days
In short: as §2

[22] = system: wheat (Triticum aestivum); assay: as above; conditions: 10 days
In short: as §2

soybean (Glycine max) [23] = assay: as above; conditions: 10 days
In short: as §2

[24] = system: ragweed (common ragweed, Ambrosia artemisiifolia); assay: as above; conditions: 10 days
In short: as §2

[25] = system: green foxtail (Setaria viridis); assay: as above; conditions: 10 days
In short: as §2

[26] = system: oat, wild (wild oat, Avena fatua); assay: as above; conditions: 10 days
In short: as §2

[27] = system: barnyardgrass (Echinochloa crus-galli); assay: as above; conditions: 10 days
In short: as §2

[28] = 62 g ai/ha, postemergence, 10 days, 0 = no effect, 100 = complete control
[29] = Postemergence, 16 g ai/ha, greenhouse 10 days, 0 no effect, 100 complete control
[30] = 62 g ai/ha, 0 = no effect, 100 = complete control

C=CC1(C(=O)NC2CC(C(=O)OC)C2)CN(c2cc(F)cc(F)c2)C(=O)O1 (stereo not shown) [Compound 174]
Plant response rating, Rice (0 to 100 scale, 0 is no effect and 100 is complete control) (rice (Oryza sativa)): 0 | Plant response rating, Barnyardgrass (0 to 100 scale, 0 is no effect and 100 is complete control) [1]: 0 | Plant response rating, Ducksalad (0 to 100 scale, 0 is no effect and 100 is complete control) [2]: 0 | Plant response rating, Sedge, Umbrella (0 to 100 scale, 0 is no effect and 100 is complete control) [3]: 0 | Ryegrass, Italian plant response rating (0-100) [4, 28]: 0 | Ryegrass, Italian plant response rating (0 to 100 scale) [4, 29]: 0 | Kochia plant response rating (0-100) (kochia (Bassia scoparia) [5]; [28]): 0 | Kochia plant response rating (0 to 100 scale) (kochia (Bassia scoparia) [5]; [29]): 0 | Pigweed, Palmer plant response rating (0-100) [6, 28]: 0 | Pigweed, Palmer plant response rating (0 to 100 scale) [6, 29]: 0 | Horseweed plant response rating (0-100) [7, 28]: 0 | Horseweed plant response rating (0 to 100 scale) [7, 29]: 0 | Corn plant response rating (0-100) (corn (Zea mays) [8]; [28]): 0 | Corn plant response rating (0 to 100 scale) (corn (Zea mays) [8]; [29]): 0 | Blackgrass plant response rating (0-100) [9, 28]: 0 | Blackgrass plant response rating (0 to 100 scale) [9, 29]: 0 | Wheat plant response rating (0-100) [10, 28]: 0 | Wheat plant response rating (0 to 100 scale) [10, 29]: 0 | Soybean plant response rating (0-100) (soybean (Glycine max) [11]; [28]): 0 | Soybean plant response rating (0 to 100 scale) (soybean (Glycine max) [11]; [29]): 0 | Ragweed plant response rating (0-100) [12, 28]: 0 | Ragweed plant response rating (0 to 100 scale) [12, 29]: 0 | Galium plant response rating (0-100) [13, 28]: 0 | Galium plant response rating (0 to 100 scale) [13, 29]: 0 | Foxtail, Green plant response rating (0-100) [14, 28]: 0 | Foxtail, Green plant response rating (0 to 100 scale) [14, 29]: 0 | Oat, Wild plant response rating (0-100) [15, 28]: 0 | Oat, Wild plant response rating (0 to 100 scale) [15, 29]: 0 | Barnyardgrass plant response rating (0-100) [16, 28]: 20 | Barnyardgrass plant response rating (0 to 100 scale) [16, 29]: 10 | Ryegrass, Italian plant response rating ([17]; 16 g ai/ha, 0 to 100 scale): 0 | Ryegrass, Italian plant response rating (0-100) [17, 30]: 0 | Kochia plant response rating (kochia (Bassia scoparia) [18]; 16 g ai/ha, 0 to 100 scale): 0 | Kochia plant response rating (0-100) (kochia (Bassia scoparia) [18]; [30]): 0 | Pigweed, Palmer plant response rating ([19]; 16 g ai/ha, 0 to 100 scale): 0 | Pigweed, Palmer plant response rating (0-100) [19, 30]: 0 | Corn plant response rating (corn (Zea mays) [20]; 16 g ai/ha, 0 to 100 scale): 0 | Corn plant response rating (0-100) (corn (Zea mays) [20]; [30]): 0 | Blackgrass plant response rating ([21]; 16 g ai/ha, 0 to 100 scale): 0 | Blackgrass plant response rating (0-100) [21, 30]: 0 | Wheat plant response rating ([22]; 16 g ai/ha, 0 to 100 scale): 0 | Wheat plant response rating (0-100) [22, 30]: 0 | Soybean plant response rating (soybean (Glycine max) [23]; 16 g ai/ha, 0 to 100 scale): 0 | Soybean plant response rating (0-100) (soybean (Glycine max) [23]; [30]): 0 | Ragweed plant response rating ([24]; 16 g ai/ha, 0 to 100 scale): 0 | Ragweed plant response rating (0-100) [24, 30]: 0 | Foxtail, Green plant response rating ([25]; 16 g ai/ha, 0 to 100 scale): 0 | Foxtail, Green plant response rating (0-100) [25, 30]: 0 | Oat, Wild plant response rating ([26]; 16 g ai/ha, 0 to 100 scale): 0 | Oat, Wild plant response rating (0-100) [26, 30]: 0 | Barnyardgrass plant response rating ([27]; 16 g ai/ha, 0 to 100 scale): 0 | Barnyardgrass plant response rating (0-100) [27, 30]: 0
